Experimental data taken from patent publication US9340537B2, “Benzamide derivatives for inhibiting the activity of ABL1, ABL2 and BCR-ABL1” (NOVATIS AG, priority 2012, dated 2016).
Where two headings read alike, the source gives them in different places.

What was measured:
[1] = system: Ba/F3-BCR-ABL1-WT cells; test: Proliferation assay Ba/F3-BCR-ABL1-WT cells; format: cell-based, murine; conditions: Mus musculus
Excerpt: (§1) The murine bone marrow-derived cell line Ba/F3 was used to generate the appropriate cell line models. […] These cells are referred to as Ba/F3-WT.
(§2) To generate Ba/F3 cells that depend on BCR-ABL1 expression for growth and survival, Ba/F3 cells were engineered to express BCR-ABL1 using retroviral transduction with a MSCV based retroviral vector containing a p210 BCR-ABL1expression cassette. […] These cells are referred to as Ba/F3-BCR-ABL-WT. […] These cells are referred to as Ba/F3-BCR-ABL-T315I.
(§3) Ba/F3-WT cells were maintained in RPMI1640 media with L-glutamine, HEPES (Lonza), 10% FBS (Gibco) and 5 ng/ml IL-3 (Calbiochem). Ba/F3-BCR-ABL1-WT cells and Ba/F3-BCR-ABL1-T315I cells were maintained in RPMI1640 media with L-glutamine, HEPES (Lonza) and 10% FBS (Gibco).
(§4) For each cell line, the cell density was adjusted to 50 000 cells/mL and 50 μL (2500 cells) added per well of a 384-well assay plate.
(§5) Test compounds were resuspended in DMSO at a concentration of 10 mM. A serial three-fold dilution of each compound with DMSO was performed in 384-well plates using the Janus Liquid Dispenser (PerkinElmer). Compound was delivered to the assay plates containing 2500 cells in a 50 μL volume via Acoustic delivery from an ATS-100 (EDC).
(§6) Cells were incubated at 37° C. in a humidified environment with 5% carbon dioxide for 48 hours. Britelite plus solution (Perkin Elmer) was prepared according to the manufacturer's instructions and 25 μL added to each well of the assay plate. […] The degree of luminescence correlates with the number of cells in each well. The effect of each inhibitor concentration can therefore be calculated and IC50 values generated.

[2] = target: T1, ABL1 (64-515) (Homo sapiens (Human), UniProt P00519); test: Caliper ABL1 (64-515) microfluidic mobility shift kinase assay; conditions: read-out: Caliper ABL1 (64-515) IC50
[3] = system: Ba/F3-BCR-ABL1-T315I cells; test: Proliferation assay Ba/F3-BCR-ABL1-T315I cells; format: cell-based, murine; conditions: Mus musculus
Excerpt: as §1, §2, §3, §4, §5, §6

[4] = target: T1, ABL1 (64-515); test: Radio ABL1 (64-515) radiometric filter-binding kinase assay; format: biochemical; conditions: 20 μM ATP
Description: Pre-incubation of enzyme with compounds (when stated) was performed by exposing the enzyme to compounds prior to addition of the substrate mixture (ATP and/or peptide substrate). […] Filter-plates were washed 3× with 0.5% H3PO4, followed by addition of 30 μL scintillation cocktail (Microscint, Perkin Elmer) per well and then analysed in a TopCount NXT scintillation counter (Perkin Elmer). Results were expressed as IC50 values.

[5] = system: BCR-ABL1+KCL-22 cells; test: Acquired resistance in BCR-ABL1+KCL-22 cells in vitro; format: cell-based; conditions: single agent, cells treated every 3-4 days
[6] = 48 hours, Britelite luminescence, read-out: Ba/F3-BCR-ABL1-WT IC50
[7] = 48 hours, Britelite luminescence, read-out: Ba/F3-BCR-ABL1-T315I IC50

T1 sequence (P00519 64-515): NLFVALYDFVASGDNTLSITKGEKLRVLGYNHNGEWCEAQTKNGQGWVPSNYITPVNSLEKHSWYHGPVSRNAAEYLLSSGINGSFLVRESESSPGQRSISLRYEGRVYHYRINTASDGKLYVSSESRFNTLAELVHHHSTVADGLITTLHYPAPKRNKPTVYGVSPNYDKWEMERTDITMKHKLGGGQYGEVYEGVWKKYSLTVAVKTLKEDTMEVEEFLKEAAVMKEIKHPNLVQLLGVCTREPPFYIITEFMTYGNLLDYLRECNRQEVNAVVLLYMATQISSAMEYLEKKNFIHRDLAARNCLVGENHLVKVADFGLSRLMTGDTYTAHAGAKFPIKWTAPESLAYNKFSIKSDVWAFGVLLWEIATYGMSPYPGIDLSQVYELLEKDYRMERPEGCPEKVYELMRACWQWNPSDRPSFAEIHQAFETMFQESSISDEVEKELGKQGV

Work on `O=C(Nc1ccc(OC(F)(F)Cl)cc1)c1cnc(N2C[C@H](O)[C@@H](F)C2)c(-c2ccn[nH]2)c1` (relative stereo) [Example 75, N-(4-(Chlorodifluoromethoxy)phenyl)-6-(trans-3-fluoro-4-hydroxypyrrolidin-1-yl)-5-(1H-pyrazol-5-yl)nicotinamide] yielded an IC50 [1, 6] of 0.0012 µM, an IC50 [2] of 0.5 nM and an IC50 [3, 7] of 0.017 µM. It also gave an IC50 [4] of 3 nM.

In the case of `O=C(Nc1ccc(OC(F)(F)F)cc1)c1cnc(N2CC[C@@H](O)C2)c(-c2ccc[nH]2)c1` [Example 6, (R)-6-(3-Hydroxypyrrolidin-1-yl)-5-(1H-pyrrol-2-yl)-N-(4-(trifluoromethoxy)phenyl)nicotinamide], the IC50 [1, 6] is reported as 0.0045 µM, the IC50 [2] is reported as 1.3 nM and the IC50 [3, 7] is reported as 0.106 µM. The IC50 [4] was 9 nM.

With `O=C(Nc1ccc(OC(F)(F)F)cc1)c1cnc(N2CC[C@@H](O)C2)c(-c2ccoc2)c1` [Example 7, (R)-5-(Furan-3-yl)-6-(3-hydroxypyrrolidin-1-yl)-N-(4-(trifluoromethoxy)phenyl)nicotinamide] the IC50 [1, 6] was 0.0059 µM, the IC50 [3, 7] was 0.674 µM and the IC50 [4] was < 3 nM.

In the case of `O=C(Nc1ccc(OC(F)(F)F)cc1)c1cnc(N2CC[C@@H](O)C2)c(-c2cncs2)c1` [Example 10, (R)-6-(3-Hydroxypyrrolidin-1-yl)-5-(thiazol-5-yl)-N-(4-(trifluoromethoxy)phenyl)nicotinamide], the IC50 [1, 6] is reported as 0.0025 µM, the IC50 [2] is reported as 0.5 nM and the IC50 [3, 7] is reported as 0.05 µM. For the same molecule, the IC50 [4] was 5.3 nM.

In the case of `C[C@@]1(O)CCN(c2ncc(C(=O)Nc3ccc(OC(F)(F)F)cc3)cc2-c2ccn[nH]2)C1` [Example 14, (R)-6-(3-Hydroxy-3-methylpyrrolidin-1-yl)-5-(1H-pyrazol-5-yl)-N-(4-(trifluoromethoxy)phenyl)nicotinamide], the IC50 ([1]; 48 h, read-out: Ba/F3-BCR-ABL1-WT IC50 [μM]) is reported as 0.0048 µM and the IC50 ([3]; 48 h, read-out: Ba/F3-BCR-ABL1-T315I IC50 [μM]) is reported as 0.134 µM.

With `O=C(Nc1ccc(OC(F)(F)Cl)cc1)c1cnc(N2CC[C@@H](O)C2)c(-c2ccc[nH]2)c1` [Example 22, (R)—N-(4-(Chlorodifluoromethoxy)phenyl)-6-(3-hydroxypyrrolidin-1-yl)-5-(1H-pyrrol-2-yl)nicotinamide] the IC50 [1, 6] was 0.0008 µM, the IC50 [2] was < 0.13 nM and the IC50 [3, 7] was 0.027 µM. It also gave an IC50 [4] of 2.4 nM.

`N#Cc1ccc(-c2cc(C(=O)Nc3ccc(OC(F)(F)F)cc3)cnc2N2CC[C@@H](O)C2)[nH]1` [Example 30, (R)-5-(5-Cyano-1H-pyrrol-2-yl)-6-(3-hydroxypyrrolidin-1-yl)-N-(4-(trifluoromethoxy)phenyl)nicotinamide] gave an IC50 [1, 6] of 0.0011 µM, an IC50 [2] of 0.7 nM and an IC50 [3, 7] of 0.022 µM. For the same molecule, the IC50 [4] was 6 nM.

Work on `N#Cc1ccc(-c2cc(C(=O)Nc3ccc(OC(F)(F)Cl)cc3)cnc2N2CC[C@@H](O)C2)[nH]1` [Example 45, (R)—N-(4-(Chlorodifluoromethoxy)phenyl)-5-(5-cyano-1H-pyrrol-2-yl)-6-(3-hydroxypyrrolidin-1-yl)nicotinamide] yielded an IC50 [1, 6] of 0.0006 µM, an IC50 [2] of 0.7 nM and an IC50 [3, 7] of 0.013 µM. The IC50 [4] was 4 nM.

Molecule `O=C(Nc1ccc(OC(F)(F)Cl)cc1)c1cnc(N2CCCC3(CCN3)C2)c(-c2ccn[nH]2)c1` (stereo not shown) [Example 61, N-(4-(Chlorodifluoromethoxy)phenyl)-5-(1H-pyrazol-5-yl)-6-(1,6-diazaspiro[3.5]nonan-6-yl)nicotinamide] has an IC50 [1, 6] of 0.0493 µM, an IC50 [2] of 4.5 nM and an IC50 [3, 7] of 1.04 µM. It also gave an IC50 [4] of 3 nM.

`CC1(O)CN(c2ncc(C(=O)Nc3ccc(OC(F)(F)Cl)cc3)cc2-c2ccn[nH]2)C1` [Example 66, N-(4-(Chlorodifluoromethoxy)phenyl)-6-(3-hydroxy-3-methylazetidin-1-yl)-5-(1H-pyrazol-5-yl)nicotinamide] showed an IC50 [2] of 0.8 nM and an IC50 [4] of 1.5 nM.

In the case of `O=C(Nc1ccc(OC(F)(F)Cl)cc1)c1cnc(N2CC3(CNC3)C2)c(-c2ccn[nH]2)c1` [Example 68, N-(4-(Chlorodifluoromethoxy)phenyl)-5-(1H-pyrazol-5-yl)-6-(2,6-diazaspiro[3.3]heptan-2-yl)nicotinamide], the IC50 [2] is reported as < 0.13 nM and the IC50 [4] is reported as 2 nM.

For `CC1(O)CN(c2ncc(C(=O)Nc3ccc(OC(F)(F)F)cc3)cc2-c2ncc[nH]2)C1` [Example 69, 6-(3-Hydroxy-3-methylazetidin-1-yl)-5-(1H-imidazol-2-yl)-N-(4-(trifluoromethoxy)phenyl)nicotinamide], the IC50 [1, 6] was 0.0243 µM, the IC50 [2] was 0.2 nM and the IC50 [3, 7] was 0.395 µM. The IC50 [4] was 0.2 nM.

Molecule `O=C(Nc1ccc(OC(F)(F)F)cc1)c1cnc(N2CC[C@@H](O)C2)c(-c2ncc[nH]2)c1` [Example 70, (R)-6-(3-Hydroxypyrrolidin-1-yl)-5-(1H-imidazol-2-yl)-N-(4-(trifluoromethoxy)phenyl)nicotinamide] has an IC50 [1, 6] of 0.0058 µM, an IC50 [2] of 6.4 nM and an IC50 [3, 7] of 0.106 µM.

`O=C(Nc1ccc(OC(F)(F)Cl)cc1)c1cnc(N2CC[C@@H](O)C2)c(-c2ncc[nH]2)c1` [Example 71, (R)—N-(4-(Chlorodifluoromethoxy)phenyl)-6-(3-hydroxypyrrolidin-1-yl)-5-(1H-imidazol-2-yl)nicotinamide] gave an IC50 [1, 6] of 0.0011 µM, an IC50 [2] of 0.4 nM and an IC50 [3, 7] of 0.008 µM.

`Cc1cnc(-c2cc(C(=O)Nc3ccc(OC(F)(F)F)cc3)cnc2N2CC[C@@H](O)C2)[nH]1` [Example 72, (R)-6-(3-Hydroxypyrrolidin-1-yl)-5-(5-methyl-1H-imidazol-2-yl)-N-(4-(trifluoromethoxy)phenyl)nicotinamide] showed an IC50 [1, 6] of 0.0045 µM, an IC50 [2] of 4.2 nM and an IC50 [3, 7] of 0.074 µM.

For `CN(C)C(=O)c1ccc(-c2cc(C(=O)Nc3ccc(OC(F)(F)Cl)cc3)cnc2N2CC[C@@H](O)C2)[nH]1` [Example 73, (R)—N-(4-(Chlorodifluoromethoxy)phenyl)-5-(5-(dimethylcarbamoyl)-1H-pyrrol-2-yl)-6-(3-hydroxypyrrolidin-1-yl)nicotinamide], the IC50 [1, 6] was 0.0004 µM, the IC50 [2] was 1.1 nM and the IC50 [3, 7] was 0.007 µM.

Molecule `N[C@H]1CN(c2ccc(C(=O)Nc3ccc(OC(F)(F)Cl)cc3)cc2-c2ccn[nH]2)C[C@@H]1O` [Example 76, 4-((3S,4S)-3-Amino-4-hydroxypyrrolidin-1-yl)-N-(4-(chlorodifluoromethoxy)phenyl)-3-(1H-pyrazol-5-yl)benzamide] has an IC50 [2] of 1.4 nM and an IC50 [4] of 3 nM.

`O=C(Nc1ccc(OC(F)(F)Cl)cc1)c1ccc(N2C[C@H](O)[C@@H](O)C2)c(-c2ccn[nH]2)c1` [Example 77, N-(4-(Chlorodifluoromethoxy)phenyl)-4-((3S,4S)-3,4-dihydroxypyrrolidin-1-yl)-3-(1H-pyrazol-5-yl)benzamide] was tested, and the IC50 [1, 6] was 0.0041 µM, the IC50 [2] was 0.7 nM and the IC50 [3, 7] was 0.075 µM.

Molecule `Cc1cc(-c2cc(C(=O)Nc3ccc(OC(F)(F)Cl)cc3)ccc2N2C[C@H](N)[C@@H](O)C2)[nH]n1` [Example 84, 4-((3S,4S)-3-Amino-4-hydroxypyrrolidin-1-yl)-N-(4-(chlorodifluoromethoxy)phenyl)-3-(3-methyl-1H-pyrazol-5-yl)benzamide] has an IC50 [2] of 0.8 nM and an IC50 [4] of 2 nM.

Work on `O=C(Nc1ccc(OC(F)(F)Cl)cc1)c1cnc(N2CCC(O)CC2)c(-c2ccn[nH]2)c1` [Example 85, N-(4-(Chlorodifluoromethoxy)phenyl)-6-(4-hydroxypiperidin-1-yl)-5-(1H-pyrazol-5-yl)nicotinamide] yielded an IC50 [2] of 0.7 nM and an IC50 [4] of 2 nM.

`O=C(Nc1ccc(OC(F)(F)Cl)cc1)c1cnc(N2CCC[C@H](O)C2)c(-c2ccn[nH]2)c1` [Example 86, (S)—N-(4-(Chlorodifluoromethoxy)phenyl)-6-(3-hydroxypiperidin-1-yl)-5-(1H-pyrazol-5-yl)nicotinamide] showed an IC50 [2] of 1.5 nM and an IC50 [4] of 4 nM.

`O=C(Nc1ccc(OC(F)(F)Cl)cc1)c1cnc(N2CCC[C@@H](O)C2)c(-c2ccn[nH]2)c1` [Example 87, (R)—N-(4-(Chlorodifluoromethoxy)phenyl)-6-(3-hydroxypiperidin-1-yl)-5-(1H-pyrazol-5-yl)nicotinamide] showed an IC50 [2] of 1.3 nM and an IC50 [4] of 3 nM.

`Cc1cn(-c2cc(NC(=O)c3ccc(C)c(Nc4nccc(-c5cccnc5)n4)c3)cc(C(F)(F)F)c2)cn1` [nilotinib] was tested, and the “time until acquired resistance” value [5] was 18 to 21 days.
